From US11999701B1, “4,5-bis(4-chlorophenyl)-2-phenyl-1H-imidazol-1-yl as an antimicrobial compound” (KING FAISAL UNIVERSITY, priority 2023, dated 2024) come the findings set out here.

What all share (format): cell-based
One assay deals with Aspergillus flavus. The experiment in a line: Agar plate disc-diffusion, antifungal activity. The protocol:
(§1) The agar plate disc-diffusion method was applied. […] The discs were then placed onto the surface of agar plates (nutrient agar for bacteria and Sabouraud's dextrose agar for fungi) seeded with the test organism. Each plate contained 15 mL of the agar medium, previously seeded with 0.2 mL of the broth culture of each organism pregrown for 18 hours. The plates were incubated at 37 °C for 48 h, and 72 h for fungi. The inhibition zones were measured in mm. Discs impregnated with DMSO were used as a control, and its inhibition zone was subtracted from the tested compound actual inhibition zone.
For orientation: Agar diffusion results depend on both activity and mobility in agar.

Assay [1] deals with Chrysosporium keratinophilum. The experiment in a line: Agar plate disc-diffusion, antifungal activity. The protocol: as §1
The subject of another assay is Escherichia coli. The experiment in a line: Agar plate disc-diffusion, antibacterial activity. The method, then: as §1
A further assay relates to Pseudomonas aeruginosa. Nature of the assay: Agar plate disc-diffusion, antibacterial activity. The protocol:
as §1

In the next assay the test system is Bacillus cereus. The experiment in a line: Agar plate disc-diffusion, antibacterial activity. The method, then:
as §1

The next assay concerns Staphylococcus aureus. Nature of the assay: Agar plate disc-diffusion, antibacterial activity. The protocol: as §1
For a further assay, the system named is different microbes. The experiment in a line: Antimicrobial activity, overall statement. To be noted: against different microbes (bacteria and fungi of Tables 1 and 2). The protocol: The agar plate disc-diffusion method was applied. Sterilized filter papers (6 mm in diameter) were wetted with 10 μL of a solution of 4,5-bis(4-chlorophenyl)-2-phenyl-1H-imidazole (IV) to be tested, containing 10 mg/mL in DMSO, and the discs were allowed to air dry. The discs were then placed onto the surface of agar plates (nutrient agar for bacteria and Sabouraud's dextrose agar for fungi) seeded with the test organism. Each plate contained 15 mL of the agar medium, previously seeded with 0.2 mL of the broth culture of each organism pregrown for 18 hours. The plates were incubated at 37 °C for 48 h, and 72 h for fungi. The inhibition zones were measured in mm. Discs impregnated with DMSO were used as a control, and its inhibition zone was subtracted from the tested compound actual inhibition zone.

The mark [2] stands for this setting: A = concentration of comp. = 10,000 μL.
The mark [3] stands for this setting: B = concentration of comp. = 30,000 μL.
[4] abbreviates: C = concentration of comp. = 50,000 μL.

Each structure is given as a SMILES string.

With `Clc1ccc(-c2nc(-c3ccccc3)[nH]c2-c2ccc(Cl)cc2)cc1` [IV, 4,5-bis(4-chlorophenyl)-2-phenyl-1H-imidazole], the inhibition zone worked out at 22 mm in the assay on Aspergillus flavus (setting [2]); 25 mm in the assay on Aspergillus flavus (setting [3]); 32 mm with Aspergillus flavus (setting [4]); 26 mm in assay [1] (setting [2]); 28 mm in assay [1] (setting [3]); 46 mm in assay [1] (setting [4]). In addition, the inhibition zone in the assay with Escherichia coli (setting [2]) was found to be 27 mm; in the assay on Escherichia coli (setting [3]) it was 34 mm; with Escherichia coli (setting [4]), 52 mm; in the assay on Pseudomonas aeruginosa (setting [2]) it was 25 mm; with Pseudomonas aeruginosa (setting [3]), 28 mm; with Pseudomonas aeruginosa (setting [4]), 46 mm. The inhibition zone was 22 mm with Bacillus cereus (setting [2]); 24 mm in the assay on Bacillus cereus (setting [3]); 36 mm in the assay with Bacillus cereus (setting [4]); 20 mm with Staphylococcus aureus (setting [2]); 24 mm in the assay on Staphylococcus aureus (setting [3]); 33 mm with Staphylococcus aureus (setting [4]). The antimicrobial activities entry in the assay with different microbes is “excellent antimicrobial activities”.
